Source: patent US9861601B2 (The Board of Trustees of the Leland Stanford Junior …, priority 2012, dated 2018)
“Also recorded” adds a separate entry of the source.

What was measured:
athymic rat model of PAH = assay: SU5416 athymic nude rat model of PAH (PH); assay type: in vivo; conditions: for reversal of established PH / PH-related death: treatment started 21 days (3 wk) after SU5416, doses as in b355, assessed at wk 5
Experimental: In the model, PH was first initiated by a single injection of a VEGFR2 inhibitor, SU5416, and monitored by weekly echocardiography. Survival of the animals was recorded on daily basis. […] After 5 weeks (day 35), animals were sacrificed after right heart catheterization. […] Oral availability of ubenimex was determined by pharmacokinetic analysis.
The athymic nude rat model is an accepted model of severe PAH associated with immune dysregulation. Athymic nude rats (rnu/rnu) (Charles River Laboratories) were used for these studies. Six to eight week old animals were injected subcutaneously (s.c.) with a single dose of either SU5416 (SU) (10 mg/kg) dissolved in DMSO or DMSO (vehicle) alone. All animals were maintained in normoxic conditions. PH progression was monitored by weekly echocardiography (ECHO). Survival of rats was monitored out to wk 5 when they underwent a terminal right heart catheterization. PH was confirmed by ECHO. Hemodynamic measurements included right ventricular systolic pressure (RVSP) determined by right heart catheterization and right ventricular hypertrophy (RVH) determined by the weight ratio of RV/(LV+S) (right ventricle/(left ventricle+septum)).
All animals were sacrificed 5 wk after SU administration for hemodynamic measurements. […] Serial improvement was observed from the time of treatment initiation. Interval improvement was manifested by decreasing RV wall thickness and increasing pulmonary artery acceleration times (PAAT) after initiation of treatment. […] Here again, the compound of Formula III was notable: treatment with that compound yielded an RVH ratio of 0.29. RVH for healthy rats is generally about 0.25.

[1] = system: Rat pulmonary arterial endothelial cells (PAECs); assay: PAEC apoptosis assay (Annexin V flow cytometry, with or without macrophage co-culture); assay type: cell-based; conditions: for PAEC apoptosis induced by exogenous leukotriene (no macrophages): 24 hrs
Experimental: The transwell assay involved co-culturing IMØs from several sources with PAECs. IMØs, from (A) DMSO and (B) SU rat lungs, were isolated and co-cultured with PAECs. After 24 hr, PAEC apoptosis was analyzed by flow cytometry for Annexin V expression. To isolate the specific impact of LTB4 generated by 5-LO activation further, IMØs were extracted from healthy rats and transfected with S271E to produce a phosphorylation mimic mutant or with S271A to produce a dephosphorylation mimic mutant. Vector and WT 5-LO DNA-transfected IMØs were used as controls. Flow cytometry was performed on PAECs co-cultured with IMØs extracted from healthy rats and transfected with (C) vector as control, (D) WT 5-LO, (E) S271A, (F) S271E (G) S271E mutant treated with n-acetyl cysteine (NAC) (200 nM) or (H) S271A mutant treated with LTB4 (100 nM). PAECs were treated with (I) exogenous LTB4 (200 nM) or (J) LTB4 (200 nM) with a BLT1 inhibitor U75302 […] (n=3 experiments per group). Representative flow cytometry plots are shown, n=3 experiments per group.
The results reported in this example were obtained using the following PAEC apoptosis assay. Rat pulmonary arterial endothelial cells (PAECs) were co-cultured with macrophages (+/− transfection) for 24 hr. They were then washed once with PBS and once with binding buffer from the Annexin V Apoptosis Detection Kit (88-8007; eBioscience). Cells were then suspended in binding buffer at 1-5×10^6/ml. 5 μl of APC conjugated Annexin V was added to 100 μl of cells, which were then incubated at room temperature for 15 min. Five μl of propidium iodide staining solution were added 5 min. prior to flow cytometry analysis on an LSRFortessa cell analyzer (BD Biosciences).

[2] = system: human primary pulmonary arterial smooth muscle cell (hPASMC); assay: hPASMC proliferation (MTT) and hypertrophy (protein/DNA ratio) assay; assay type: cell-based; conditions: 24 hr
Experimental: An in vitro toxicology assay kit (#M-5655, #8910, Sigma) was used to measure the number of viable hPASMC after LTB4 treatment. Briefly, hPASMCs were plated in a 96 well plate one day before treatment. Cells were treated with 200 nM or 400 nM LTB4 for 24 hr. On the day of assay, growing medium was first removed from the cells, then 20 μL of 12 mM MTT ((3-(4,5-Dimethylthiazol-2-yl)-2,5-diphenyltetrazolium bromide, a yellow tetrazole)) stock solution were then added to each well. After incubation at 37 degrees C. for 4 hr, 200 μL MTT dissolution solution (10% Triton X-100 plus 0.1 N HCl in anhydrous isopropanol) were added to each well. Relative optical density, which was used as a parameter for proliferation, was calculated by subtracting the absorbance at 690 nm from that at 570 nm. Cellular hypertrophy was determined by protein/DNA ratio. hPASMCs were seeded on 6 well plates. Cells were treated with 200 nM or 400 nM LTB4 for 24 hr. hPASMCs were then collected and divided into to two. For one part of each sample, a BCA protein assay kit (#23227, Thermo Scientific) was used to determined the total protein amount. DNA was purified from the other part of the sample using a Miniprep kit (QIAGEN). DNA concentration was then measured by nanodrop.

Recombinant human LTA4H = target: T1, Recombinant human LTA4H (Homo sapiens, UniProt P09960); assay: In vitro epoxide hydrolase activity assay (LTB4 EIA readout); assay type: biochemical; conditions: LTA4 substrate 0.13 μM
T1 sequence (P09960 1-611): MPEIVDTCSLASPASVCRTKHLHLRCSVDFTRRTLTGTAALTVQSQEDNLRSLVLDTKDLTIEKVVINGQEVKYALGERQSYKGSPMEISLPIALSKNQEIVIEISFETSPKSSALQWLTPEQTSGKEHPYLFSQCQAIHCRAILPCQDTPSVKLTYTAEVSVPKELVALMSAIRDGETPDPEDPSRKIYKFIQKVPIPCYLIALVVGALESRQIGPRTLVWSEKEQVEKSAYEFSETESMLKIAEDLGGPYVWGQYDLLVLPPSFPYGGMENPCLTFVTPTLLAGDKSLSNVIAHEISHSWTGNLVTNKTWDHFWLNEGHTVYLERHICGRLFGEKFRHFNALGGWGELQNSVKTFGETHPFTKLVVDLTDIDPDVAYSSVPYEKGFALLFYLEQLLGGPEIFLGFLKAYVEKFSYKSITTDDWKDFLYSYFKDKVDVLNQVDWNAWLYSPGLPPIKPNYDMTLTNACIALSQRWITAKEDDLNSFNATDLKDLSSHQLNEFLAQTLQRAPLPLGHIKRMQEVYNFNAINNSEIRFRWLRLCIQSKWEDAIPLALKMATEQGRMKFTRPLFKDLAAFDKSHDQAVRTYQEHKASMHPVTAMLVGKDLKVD
Experimental: The LTA4H inhibitory activity of certain compounds in this invention was measured using an in vitro epoxide hydrolase activity assay. In this assay, an LTA4 substrate was first prepared from the methyl ester of LTA4 (Cayman Chemical), which was treated under nitrogen with […] of NaOH, at room temperature, for 40 min. The LTA4 substrate in its free acid form was kept frozen at −80° C. until use. Recombinant human LTA4H (36 ng) was incubated with various concentrations of test compounds for 10 min. at room temperature in assay buffer (0.1 M potassium phosphate, pH 7.4, 5 mg/ml fatty acid-free bovine serum albumin) in a volume of 200 μl. Then, the mixture was incubated with 25 μl of LTA4 substrate (final concentration, 40 ng/ml, 0.13 μM; final volume, 225 μl) for 30 min. at room temperature. The assay was terminated by diluting 20-fold with assay buffer. LTB4 production from each reaction was then assayed using the LTB4 EIA kit (catalog no. 520111, Cayman Chemical). The concentration of compound required for half-maximal inhibition of recombinant enzyme activity (IC50) was calculated by nonlinear regression using GraphPad Prism 4.0 (GraphPad Software Inc), one-site binding competition.

[3] = patients with PAH; cited from earlier work

CC(=O)Oc1ccccc1C(=O)O [aspirin]
reversal of established PH / PH-related death (athymic rat model of PAH): relatively less therapeutic

CCCCC/C=C\C\C=C/C=C/C=C/[C@@H](SC[C@H](NC(=O)CC[C@H](N)C(=O)O)C(=O)NCC(=O)O)[C@@H](O)CCCC(=O)O [LTC4, leukotriene C4]
PAEC apoptosis induced by exogenous leukotriene (no macrophages) [1]: did not induce PAEC apoptosis

CCCCC/C=C\C[C@@H](O)/C=C/C=C/C=C\[C@@H](O)CCCC(=O)O [LTB4, leukotriene B4]
cellular hypertrophy (protein/DNA ratio) ([2]; 200 nM or 400 nM): increased in a similar pattern
number of PASMC versus negative control group ([2]; 200 nM): 1.8 fold
number of PASMC versus negative control group ([2]; 400 nM): two fold more
PAEC apoptosis induced by exogenous leukotriene (no macrophages) [1]: significant apoptosis
PAEC apoptosis in co-culture with S271A transfected macrophages ([1]; exogenous LTB4 (100 nM)): caused apoptosis

O=C(NC1CCCCC1)NC1CCCCC1 [dicyclohexyl urea]
reversal of established PH / PH-related death (athymic rat model of PAH): relatively less therapeutic

CC(C)C[C@H](NC(=O)[C@@H](O)[C@H](N)Cc1ccc(Oc2nc3ccccc3s2)cc1)C(=O)O [Formula III, (S)-2-((2S,3R)-3-amino-4-(4-(benzo[d]thiazol-2-yloxy)phenyl)-2-hydroxybutanamido)-4-methylpentanoic acid]
RVSP (athymic rat model of PAH; 1 mg/kg p.o. daily, sacrificed 5 wk after SU): 28 mm Hg
RVH ratio (athymic rat model of PAH; 1 mg/kg p.o. daily, sacrificed 5 wk after SU, RV/(LV+S)): 0.29
IC50 (Recombinant human LTA4H): 10 ± 5 nM

COC(=O)[C@H](CC(C)C)NC(=O)[C@@H](O)[C@H](N)Cc1ccccc1 [ubenimex methy ester, (S)-methyl 2-((2S,3R)-3-amino-2-hydroxy-4-phenylbutanamido)-4-methylpentanoate]
IC50 (Recombinant human LTA4H): 54 ± 13 nM

CCCCCCCCCCCCC/C=C/[C@@H](O)[C@@H](N)COP(=O)(O)O [SIP, sphingosine-1-phosphate]
rescue of PAECs co-cultured with S271E cells ([1]; exogenously added): able to rescue

COC(=O)[C@H](CC(C)C)NC(=O)[C@@H](OC(C)=O)[C@@H](Cc1ccccc1)NC(C)=O [di-acyl ubenimex, (S)-methyl 2-((2S,3R)-3-acetamido-2-acetoxy-4-phenylbutanamido)-4-methylpentanoate]
IC50 (Recombinant human LTA4H): 25 ± 18 nM

CCCCC/C=C\C\C=C/C=C/C=C/[C@@H](SC[C@H](N)C(=O)O)[C@@H](O)CCCC(=O)O [LTE4, leukotriene E4]
PAEC apoptosis induced by exogenous leukotriene (no macrophages) [1]: did not induce PAEC apoptosis

CC(=O)N[C@H](Cc1ccc(O)cc1)[C@H](O)C(=O)N[C@@H](CC(C)C)C(=O)O
IC50 (Recombinant human LTA4H): 13 ± 4 nM

COC(=O)[C@H](CC(C)C)NC(=O)[C@@H](OC(C)=O)[C@@H](Cc1ccc(Br)cc1)NC(C)=O [di-acyl ubenimex bromide, (S)-methyl 2-((2S,3R)-3-acetamido-2-acetoxy-4-(4-bromophenyl)butanamido)-4-methylpentanoate]
IC50 (Recombinant human LTA4H): 40 ± 22 nM

CC(=O)N[C@@H](CS)C(=O)O [n-acetyl cysteine]
PAEC apoptosis in co-culture with S271E mutant macrophages ([1]; NAC (200 nM)): no diminution of apoptosis

CCCCC/C=C\C\C=C/C=C/C=C/[C@@H](SC[C@H](N)C(=O)NCC(=O)O)[C@@H](O)CCCC(=O)O [LTD4, leukotriene D4]
PAEC apoptosis induced by exogenous leukotriene (no macrophages) [1]: did not induce PAEC apoptosis

CC(c1cc2ccccc2s1)N(O)C(N)=O (centres unmarked) [zileuton, 1-[1-(1-benzothiophen-2-yl)ethyl]-1-hydroxyurea]
reversal of established PH / PH-related death (athymic rat model of PAH): mildly attenuated pressures and prevented death

CCCCC/C=C\C[C@@H](O)/C=C/c1cccc(C[C@@H](O)CCCCO)n1 [U75302]
LTB4-mediated PAEC apoptosis ([1]; LTB4 (200 nM) with U75302, 24 hr): prevented LTB4-mediated apoptosis

Oc1ccc(C=Cc2cc(O)cc(O)c2)cc1 [resveratrol]
reversal of established PH / PH-related death (athymic rat model of PAH): did not attenuate PH or improve survival

COC(=O)[C@H](CC(C)C)NC(=O)[C@@H](O)[C@@H](Cc1ccccc1)NC(C)=O [mono-acryl ubenimex, (S)-methyl 2-((2S,3R)-3-acetamido-2-hydroxy-4-phenylbutanamido)-4-methylpentanoate]
IC50 (Recombinant human LTA4H): 94 ± 21 nM

O=C(O)C1CCN(Cc2ccc(Oc3nc4ccccc4s3)cc2)CC1 [JNJ26993135, 1-[4-(benzothiazol-2-yloxy)-benzyl]-piperidine-4-carboxylic acid]
accumulation of 5-LO expressing periarteriolar macrophages and B cells in lungs (athymic rat model of PAH; SU-treated athymic rats): significantly reduced
in vivo PAEC apoptosis (athymic rat model of PAH; SU-treated athymic rats): reduced
reversal of established PH / PH-related death (athymic rat model of PAH): efficacious in reversing severe PH and preventing PH-related death; also recorded: reverses established PH

CN1CC(=O)N2[C@H](c3ccc4c(c3)OCO4)c3[nH]c4ccccc4c3C[C@@H]2C1=O [Tadalafil]
half-life [3]: 35 h

CC(=O)N[C@H](Cc1ccc(O)cc1)[C@H](OC(C)=O)C(=O)N[C@@H](CC(C)C)C(=O)O
IC50 (Recombinant human LTA4H): 43 ± 11 nM

COC(=O)[C@H](CC(C)C)NC(=O)[C@@H](O)[C@@H](Cc1ccc(Br)cc1)NC(C)=O [mono-acyl ubenimex bromide, (S)-methyl 2-((2S,3R)-3-acetamido-4-(4-bromophenyl)-2-hydroxybutanamido)-4-methylpentanoate]
IC50 (Recombinant human LTA4H): 93 ± 16 nM
